From PubChem BioAssay (NCI)
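Briefly, cells in 96-well plates were exposed to five compound concentrations for 48 h, and endpoints were estimated by linear interpolation. GI50 = concentration required for 50% inhibition of growth. The concentration for full growth arrest is given as TGI.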

How the values were obtained:
Test in all cases: NCI tumour cell line growth inhibition, 48 h
[1] = tested on: A549 NSCLC
[2] = tested on: ACHN renal
[3] = tested on: COLO 205 colon
[4] = tested on: HCT-116 colon
[5] = tested on: HT29 colon
[6] = tested on: IGROV1 ovarian
[7] = tested on: K-562 leukemia
[8] = tested on: MALME-3M melanoma
[9] = tested on: MOLT-4 leukemia
[10] = tested on: NCI-H23 lung
[11] = tested on: NCI-H460 lung
[12] = tested on: OVCAR-3 ovarian
[13] = tested on: U251 CNS
[14] = tested on: UACC-257 melanoma
[15] = tested on: UACC-62 melanoma
[16] = tested on: HS 578T breast
[17] = tested on: MDA-N

SMILES	TGI [1]	TGI [2]	TGI [3]	TGI [4]	TGI [5]	TGI [6]	TGI [7]	TGI [8]	TGI [9]	TGI [10]	TGI [11]	TGI [12]	TGI [13]	TGI [14]	TGI [15]	TGI [16]	TGI [17]	GI50 [4]	GI50 [12]	GI50 [15]
CC(N)C(=O)c1ccc(O)cc1 (configuration not stated)	> 100 µM	> 100 µM	> 100 µM	> 100 µM	> 100 µM	> 100 µM	> 100 µM	> 100 µM	> 100 µM	> 100 µM	> 100 µM	> 100 µM	> 100 µM	> 100 µM	> 100 µM	–	–	–	–	–
COC(=O)c1cc(C)n2c1CS[C@@H]2c1ccccc1	> 100 µM	> 100 µM	80 µM	> 100 µM	> 100 µM	> 100 µM	> 100 µM	> 100 µM	71.1 µM	> 100 µM	–	> 100 µM	> 100 µM	> 100 µM	–	> 100 µM	> 100 µM	–	–	–
CC(=O)c1ccc(N2CCN(c3c(O)c4c(c(O)c3Cl)C(=O)C=CC4=O)CC2)cc1	34.8 µM	–	8.91 µM	11.9 µM	–	15.5 µM	7.1 µM	23.5 µM	4.57 µM	–	41 µM	18.2 µM	11.9 µM	24.1 µM	7.37 µM	–	10.8 µM	–	–	–
CCCCCCNC(=O)c1cc(C#Cc2cc(OC)ccc2OC)ccc1OC	> 100 µM	> 100 µM	> 100 µM	> 100 µM	> 100 µM	> 100 µM	> 100 µM	–	> 100 µM	> 100 µM	> 100 µM	> 100 µM	> 100 µM	> 100 µM	> 100 µM	> 100 µM	> 100 µM	6.9 µM	> 100 µM	56.8 µM
OC(c1ccsc1)c1cc2ccccc2s1 (configuration not stated)	> 10 µM	> 10 µM	> 10 µM	> 10 µM	> 10 µM	> 10 µM	> 10 µM	–	> 10 µM	> 10 µM	> 10 µM	> 10 µM	> 10 µM	> 10 µM	> 10 µM	> 10 µM	> 10 µM	–	–	–
CN(C)C1(C(=O)O)CC1	> 100 µM	> 100 µM	–	> 100 µM	> 100 µM	> 100 µM	> 100 µM	> 100 µM	> 100 µM	> 100 µM	> 100 µM	> 100 µM	> 100 µM	> 100 µM	–	> 100 µM	> 100 µM	–	–	–
CSC(=NC1CC(n2cc(C)c(=O)[nH]c2=O)OC1CO)NC#N (configuration not stated)	> 100 µM	> 100 µM	> 100 µM	> 100 µM	> 100 µM	> 100 µM	> 100 µM	> 100 µM	> 100 µM	> 100 µM	> 100 µM	> 100 µM	> 100 µM	> 100 µM	> 100 µM	–	> 100 µM	–	–	–
OC(c1ccc(F)cc1)C(F)(F)c1nc(-c2ccccc2)no1 (configuration not stated)	–	67.2 µM	–	36.7 µM	33.4 µM	> 100 µM	–	35 µM	–	74.7 µM	74.7 µM	30.6 µM	29.2 µM	43.4 µM	37.7 µM	63.9 µM	62.7 µM	–	–	–
Nc1ncnc2c1ncn2[C@@H]1C[C@H]1CO	> 100 µM	> 100 µM	–	> 100 µM	> 100 µM	–	> 100 µM	> 100 µM	> 100 µM	> 100 µM	> 100 µM	> 100 µM	> 100 µM	> 100 µM	–	> 100 µM	> 100 µM	–	–	–
Cc1[nH]c2ncn3ncnc3c2c1Cc1ccccc1	> 100 µM	> 100 µM	> 100 µM	> 100 µM	> 100 µM	> 100 µM	–	> 100 µM	> 100 µM	> 100 µM	> 100 µM	> 100 µM	> 100 µM	> 100 µM	> 100 µM	> 100 µM	> 100 µM	–	–	–
COc1ccc(N2C(=O)CSC2c2cc3cc(Br)ccc3nc2Cl)cc1 (configuration not stated)	> 50 µM	> 50 µM	> 50 µM	> 50 µM	> 50 µM	> 50 µM	> 50 µM	> 50 µM	> 50 µM	> 50 µM	> 50 µM	> 50 µM	–	> 50 µM	> 50 µM	> 50 µM	–	–	–	–
COC(=O)C(/C(=N/N)C(=O)Nc1ccc(C)c(C)c1)c1nc2ccc(Cl)cc2[nH]c1=O (configuration not stated)	> 100 µM	> 100 µM	–	> 100 µM	> 100 µM	> 100 µM	> 100 µM	> 100 µM	> 100 µM	> 100 µM	> 100 µM	> 100 µM	> 100 µM	> 100 µM	> 100 µM	> 100 µM	–	–	–	–
SC[C@@H]1COC[C@H](CS)S1	> 100 µM	–	> 100 µM	> 100 µM	> 100 µM	> 100 µM	> 100 µM	–	> 100 µM	> 100 µM	> 100 µM	> 100 µM	> 100 µM	> 100 µM	> 100 µM	–	> 100 µM	–	–	–
C=C[C@@]1(C)CC2CC[C@]3(C)C(C)=CC(=O)CC3[C@]2(C)CC1O (some centres not stated)	> 100 µM	> 100 µM	> 100 µM	> 100 µM	> 100 µM	> 100 µM	> 100 µM	> 100 µM	> 100 µM	> 100 µM	> 100 µM	> 100 µM	> 100 µM	> 100 µM	> 100 µM	> 100 µM	–	–	–	–
COCC[N+](CCNC(=O)c1cccc2c(N)c3cccc(C)c3nc12)(CCOC)Cc1ccc([N+](=O)[O-])cc1	> 100 µM	> 100 µM	43 µM	58 µM	76.5 µM	33.5 µM	–	–	39.2 µM	> 100 µM	29.5 µM	99.1 µM	> 100 µM	46 µM	42.5 µM	39.3 µM	> 100 µM	–	–	–
